According to publication PMC7830893, “Four Novel Phenanthrene Derivatives with α-Glucosidase Inhibitory Activity from Gastrochilus bellinus” (Molecules, 2021):
Entries after “also recorded” stand apart in the source; their conditions may differ.

Assays:
α-glucosidase [1] = experiment: α-glucosidase enzyme kinetic study (Lineweaver–Burk and secondary plots); format: biochemical; settings: for mode of enzyme inhibition: Lineweaver–Burk plot
Method: The enzyme kinetics parameters (Km and Vmax) were determined by analyzing the double reciprocal Lineweaver–Burk plot (1/V vs. 1/[S]). Each experiment was carried out by varying the concentration of pNPG (2.0, 1.0, 0.5, and 0.25 mM) in the absence and presence of different concentrations of the test sample. The reaction was monitored at 405 nm by a microplate reader every 5 min for a total time of 25 min. Each experiment was performed in triplicate. […] For compound 3, secondary plots were plots of the inverted values of Km (1/Km) as a function of inhibitor concentration. The inhibition constant (Ki) was then calculated from the intersection point.

α-glucosidase [2] = experiment: α-glucosidase inhibitory assay (pNPG, absorbance at 405 nm); format: biochemical; settings: for α-glucosidase inhibitory activity compared with acarbose: comparison with the drug acarbose; for IC50: pNPG substrate, 37 °C, mean ± SD, triplicate
Method: The α-glucosidase enzyme inhibition assay was carried out according to the method in our previous report. The inhibitory activity was determined by measuring the p-nitrophenol, a yellow color substance that can be monitored at 405 nm, released from p-nitrophenyl-α-D-glucopyranoside (pNPG) by the α-glucosidase enzyme. The test samples were initially dissolved in 50% DMSO, and then, 10 µL of the sample solution and 40 µL of 0.1 unit/mL α-glucosidase were incubated at 37 °C for 10 min. After that, to start the reaction, 50 µL of 2 mM pNPG was added to the mixture and incubated at 37 °C for 20 min. One hundred microliters of 1 M Na2CO3 was added to stop the reaction, and then, the absorbance was measured at 405 nm. […] Each experiment was performed in triplicate.

IC50 (α-glucosidase [2])	Compound	α-glucosidase inhibitory activity compared with acarbose (α-glucosidase [2])	other results
–	C[C@H]1O[C@H](O[C@H]2[C@H](O)[C@@H](O)[C@@H](O[C@H]3[C@H](O)[C@@H](O)C(O)O[C@@H]3CO)O[C@@H]2CO)[C@H](O)[C@@H](O)[C@@H]1N[C@H]1C=C(CO)[C@@H](O)[C@H](O)[C@H]1O (some centres unmarked) [Acarbose, acarbose, reference compound]	–	mode of enzyme inhibition (α-glucosidase [1]): competitive inhibition; Vmax (α-glucosidase [1]; inhibitor dose 387 µM): 0.1 ∆ A405/min; Vmax (α-glucosidase [1]; inhibitor dose 744 µM): 0.1 ∆ A405/min
88.7 ± 4.1 µM	COc1c(O)cc2c3c1COc1c(Cc4ccc(O)cc4)c(O)cc(c1-3)CC2 [Compound 1, gastrobellinol A]	higher activity than the drug acarbose; also recorded: higher α-glucosidase inhibitory activity than acarbose	–
381 ± 9.3 µM	COc1cc(/C=C/C=O)ccc1O [Compound 7, coniferyl aldehyde]	higher activity than the drug acarbose; also recorded: higher α-glucosidase inhibitory activity than acarbose	–
–	O=Cc1ccc(O)cc1 [Compound 8, 4-hydroxybenzaldehyde]	higher α-glucosidase inhibitory activity than acarbose	–
53.7 ± 12.5 µM	COc1c(O)cc2c3c1COc1cc(O)c(Cc4ccc(O)cc4)c(c1-3)CC2 [Compound 13, 1-(4′-hydroxybenzyl)-imbricartin]	higher activity than the drug acarbose; also recorded: higher α-glucosidase inhibitory activity than acarbose	–
301 ± 6.6 µM	COc1c(O)cc2c3c1COc1cc(O)cc(c1-3)CC2 [Compound 15, imbricatin]	higher activity than the drug acarbose; also recorded: higher α-glucosidase inhibitory activity than acarbose	–

Compound	IC50 (α-glucosidase [2])	α-glucosidase inhibitory activity compared with acarbose (α-glucosidase [2])	other results
COc1cc2c3c(ccc4cc(O)c(OC)c(c43)CO2)c1Cc1ccc(O)cc1 [Compound 2, gastrobellinol B]	97.8 ± 3.1 µM	higher activity than the drug acarbose; also recorded: higher α-glucosidase inhibitory activity than acarbose	–
COc1c(O)cc2ccc3c(Cc4ccc(O)cc4)c(O)cc4c3c2c1CO4 [Compound 3, gastrobellinol C]	45.9 ± 2.8 µM	higher activity than the drug acarbose; also recorded: higher α-glucosidase inhibitory activity than acarbose	mode of enzyme inhibition (α-glucosidase [1]): competitive inhibition; also recorded: competitive inhibitor; Ki (α-glucosidase [1]; from secondary plot): 87.3 µM; Vmax (α-glucosidase [1]; inhibitor dose 20 µM, pNPG 0.25–2.0 mM): 0.1 ∆ A405/min; Vmax (α-glucosidase [1]; inhibitor dose 40 µM, pNPG 0.25–2.0 mM): 0.1 ∆ A405/min; maximum velocity (Vmax) (α-glucosidase [1]; unchanged at 20 µM and 40 µM compound 3): 0.1 A405/min
COc1cc2ccc3cc(O)c(OC)c4c(=O)oc(c1)c2c34 [Compound 9, agrostophyllone]	281 ± 15.9 µM	higher activity than the drug acarbose	–
